Common to all, as to experiment: DTP human tumour cell line panel, 48 h
Assay [1] relates to HOP-62.
The test system of assay [2] is NCI/ADR-RES.
For assay [3], the system named is A549.
Assay [4] relates to A498.
The subject of assay [5] is Malme-3M.
Assay [6] concerns MDA-N.
In assay [7] the test system is UO-31.
Assay [8] deals with SK-OV-3.
Assay [9] concerns SF-295.
Assay [10] relates to MDA-MB-435.
For assay [11], the system named is ACHN.
For assay [12], the system named is SNB-19.
The subject of assay [13] is U-251.
Assay [14] relates to NCI-H226.
Assay [15] deals with HCT-116.
Assay [16] concerns NCI-H460.
Assay [17] deals with NCI-H522.
For assay [18], the system named is COLO 205.
The test system of assay [19] is K562.
In assay [20] the test system is SF-539.

SMILES strings stand for the structures.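 Tested at 5 concentrations; 48 h exposure; 96-well plates; endpoints linearly interpolated, else capped at highest concentration. GI50 is the concentration that inhibits growth by half.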 Activity calls are given as the source filed them. Rule as the data show it: active = GI50 up to about 1.1 µM and inactive = higher.

Usually GI50 stands for the concentration giving 50% growth inhibition. Regarding `Sc1nnc(CNc2ccc(-c3nnc(S)n3-c3ccc(Cl)cc3)cc2)n1-c1ccc(Cl)cc1`, the GI50 was 18.5 µM (inactive) in [1]; > 100 µM (inactive) in assay [2]; 31.6 µM (inactive) in [3]; 55.2 µM (inactive) in assay [4]; 6.58 µM (inactive) in assay [5]; 26.1 µM (inactive) in assay [6]. For the same molecule, the GI50 in assay [7] was 16.4 µM (inactive); in [8], 34.4 µM (inactive); in [9] it was 26.9 µM (inactive); in assay [10], 28.3 µM (inactive); in assay [11] it was 47.5 µM (inactive); in assay [12], 26.5 µM (inactive). For the same molecule, the GI50 in assay [13] is 37.3 µM (inactive); in [14] it was 40.7 µM (inactive); in assay [15], 15.2 µM (inactive); in assay [16], 31.4 µM (inactive); in assay [17], 15.2 µM (inactive); in assay [18], 22.4 µM (inactive). Besides, the GI50 in [19] is 30.8 µM (inactive).
`O=C1C=CC(=O)C1(Br)Br`: the GI50 in [1] is 17.6 µM (inactive); in [2], 20.7 µM (inactive); in assay [3], 13.8 µM (inactive); in assay [4] it was 13.2 µM (inactive); in assay [5], 20 µM (inactive); in assay [6] it was 11.5 µM (inactive). The GI50 was 6.27 µM (inactive) in assay [7]; 21 µM (inactive) in assay [8]; 17.2 µM (inactive) in assay [9]; 13.4 µM (inactive) in [10]; 6.75 µM (inactive) in assay [11]; 17.1 µM (inactive) in assay [12]. The GI50 is 12.3 µM (inactive) in assay [13]; 19 µM (inactive) in [14]; 7.69 µM (inactive) in assay [15]; 19.3 µM (inactive) in [16]; 6.27 µM (inactive) in assay [17]; 10 µM (inactive) in assay [18]. For the same molecule, the GI50 in [19] is 10.2 µM (inactive); in assay [20] it was 16.4 µM (inactive).
As for `CC(=O)N1N=C(c2ccc3ccccc3c2O)CC1c1cccs1` (stereo not drawn), the GI50 is 16.3 µM (inactive) in assay [1]; 13.6 µM (inactive) in assay [2]; 13.9 µM (inactive) in [3]; 12.7 µM (inactive) in assay [4]; 10.4 µM (inactive) in [5]; 20.2 µM (inactive) in assay [6]. Moreover, the GI50 in assay [7] is 9.95 µM (inactive); in assay [8], 44.3 µM (inactive); in assay [9], 21.7 µM (inactive); in assay [10], 18 µM (inactive); in assay [11], 15.6 µM (inactive); in [13], 8.09 µM (inactive). For the same molecule, the GI50 in assay [14] is 40.1 µM (inactive); in [15], 9.89 µM (inactive); in assay [16], 8.49 µM (inactive); in assay [17], 14.9 µM (inactive); in [18] it was 20.2 µM (inactive); in assay [19], 4.18 µM (inactive). Besides, in [20], the GI50 was 22.2 µM (inactive).
For the molecule `CC(=O)O[C@H]1CC[C@]2(C=O)[C@H]3CC[C@]4(C)[C@@H](C5=CC(=O)OC5)CC[C@]4(O)[C@@H]3CC[C@]2(O)C1` [STROPHANTHIDIN ACETATE], the 50% growth inhibitory concentration (GI50) in [1] was 0.226 µM (active); in assay [2] it was 0.197 µM (active); in [3], 0.0684 µM (active); in assay [4] it was 0.264 µM (active); in [5], 0.231 µM (active); in assay [6], 0.282 µM (active). For the same molecule, the concentration for 50% growth inhibition (GI50) was 0.23 µM (active) in assay [7]; 0.222 µM (active) in assay [8]; 0.175 µM (active) in assay [9]; 0.272 µM (active) in assay [10]; 0.047 µM (active) in assay [11]; 0.608 µM (active) in assay [12]. Further, the GI50 in assay [13] was 0.296 µM (active); in [14], 0.681 µM (active); in assay [15] it was 0.11 µM (active); in [16], 0.0578 µM (active); in assay [17], 0.0336 µM (active); in [18] it was 0.378 µM (active). Moreover, the GI50 in assay [19] was 0.83 µM (active); in assay [20] it was 0.13 µM (active).
On to `CCOP(=O)(CCC(O)CNc1nc(N)nc(Cl)c1/N=N/c1ccc(Cl)cc1)OCC` (stereo not drawn), for which the GI50 in assay [1] is 12.5 µM (inactive); in assay [2], 11.5 µM (inactive); in assay [3], 14.5 µM (inactive); in assay [4] it was 10.1 µM (inactive); in assay [5], 5.2 µM (inactive); in assay [6], 12.4 µM (inactive). Further, the GI50 in assay [7] is 4.1 µM (inactive); in assay [8], 17.7 µM (inactive); in assay [9], 14.3 µM (inactive); in assay [10], 13.2 µM (inactive); in [11], 7 µM (inactive); in assay [13], 11 µM (inactive). The GI50 in assay [14] was 16.6 µM (inactive); in assay [15] it was 14.7 µM (inactive); in [16], 11.1 µM (inactive); in assay [17], 8.99 µM (inactive); in assay [18] it was 12.8 µM (inactive); in assay [19], 13.6 µM (inactive). For the same molecule, the GI50 in [20] is > 10 µM (inactive).
For `COc1ccc(-n2c(CCCC(=O)O)nc3c2C(=O)c2ccccc2C3=O)cc1`, the GI50 in assay [2] is > 100 µM (inactive); in [3] it was > 100 µM (inactive); in [4], > 100 µM (inactive); in [5], 15.2 µM (inactive); in assay [6], 31.4 µM (inactive); in [7], > 100 µM (inactive). Moreover, the GI50 in [8] is > 100 µM (inactive); in [9] it was 43 µM (inactive); in assay [10], 26.4 µM (inactive); in assay [11], 71.3 µM (inactive); in assay [12], > 100 µM (inactive); in [13] it was > 100 µM (inactive). For the same molecule, the GI50 is 36.6 µM (inactive) in assay [15]; 93.1 µM (inactive) in [16]; 25.8 µM (inactive) in assay [17]; 37.1 µM (inactive) in assay [18]; 47.3 µM (inactive) in [19]; > 100 µM (inactive) in assay [20].
`O=c1c(C(c2ccccn2)c2c(O)oc3cc(O)ccc3c2=O)c(O)oc2cc(O)ccc12`: the GI50 in [1], in assay [2], in assay [3], in assay [4], in assay [6] and in assay [7] was > 100 µM (inactive) each time. Further, the GI50 in assay [8], in assay [9], in assay [10], in [11], in assay [12] and in [13] was > 100 µM (inactive) throughout. Also, the GI50 in assay [14], in assay [15], in [16], in [17], in assay [18] and in assay [19] was > 100 µM (inactive) throughout. Also, in [20], the GI50 was > 100 µM (inactive).
Consider `CCCC1(N)CC(OC)OC(C)C1O` (stereo not drawn), for which the GI50 in assay [1], in assay [2], in assay [3], in assay [4], in [5] and in [6] was > 100 µM (inactive) each time. Besides, the GI50 in assay [7], in assay [8], in [9], in [10], in [11] and in assay [12] was > 100 µM (inactive) each time. In addition, the GI50 in assay [13], in [14], in [15], in assay [16], in [17] and in assay [18] was > 100 µM (inactive) throughout. Moreover, the GI50 in [19] and in [20] was > 100 µM (inactive) in each case.
In the case of `O=C1Cc2c(-c3ccccc3)cc(-c3ccccc3)nc2-c2ccccc2N1`, the GI50 in assay [1] was 2.64 µM (inactive); in assay [2], 3.61 µM (inactive); in assay [3], 5.61 µM (inactive); in [4], 20 µM (inactive); in [5], 9.79 µM (inactive); in [6] it was > 10 µM (inactive). Besides, the GI50 was 3.71 µM (inactive) in assay [7]; 5.22 µM (inactive) in assay [8]; 3.17 µM (inactive) in assay [9]; 15.9 µM (inactive) in assay [10]; 2.78 µM (inactive) in [12]; 3.09 µM (inactive) in assay [13]. In addition, the GI50 in [14] was 5.5 µM (inactive); in assay [15] it was 2.24 µM (inactive); in assay [16] it was 4.01 µM (inactive); in [17] it was 7.18 µM (inactive); in assay [18], 2.21 µM (inactive); in assay [19] it was 8.02 µM (inactive). The GI50 in assay [20] is 11 µM (inactive).

Values taken from ChEMBL document CHEMBL1201862, “PubChem BioAssay data set” (2004).
